Measured values from US9675694B2, “Polycyclic agents for the treatment of respiratory syncytial virus infections” (Biota Scientific Management Pty Ltd., priority 2006, dated 2017).

Each compound was assayed on RSV A2 (assay: RSV antiviral cytopathic effect (CPE) assay, MTT readout). Settings: human respiratory syncytial virus, HEp-2, 120 h; HEp2 cells infected with RSV A2, moi ~0.01, 5 days; compounds of Table 2; read-out: Activity Range (EC50, RSV A2 antiviral).
Type: cell-based
Procedure: Biological Data Method P: RSV Antiviral Assay Protocol
Compounds of the invention were tested for their antiviral activity against respiratory syncytial virus. Cytopathic effect (CPE) assays were performed essentially as described in the literature (see for example Watanabe et al, 1994, J. Virological Methods, 48:257). Serial dilutions of the test compounds were made in 96 well plates. HEp2 cells (1.0×10^4 cells/well) were infected with RSV at a low multiplicity of infection (e.g. RSV A2 at an moi of ˜0.01) and added to plates to assess antiviral activity. Uninfected HEp2 cells were used to assess compound cytotoxicity. Assays were incubated for 5 days at 37° C. in a 5% CO2 atmosphere. The extent of CPE was determined via metabolism of the vital dye 3-(4, 5-dimethylthiaxol-2-yl)-2,5-diphenyltetrazolium bromide (MTT). MTT (1 mg/ml) was added to each well and plates incubated for 2 hours incubation at 37° C. Wells were aspirated, iso-propanol (200 μL) was added and absorbance values read at 540/690 nm. Compound concentrations that inhibited CPE by 50% (EC50) and developed cytotoxicity (CC50) were calculated using non-linear regression analysis.
Compound `O=C(c1ccc(F)cc1)N1CCN2C(=O)c3cccc(F)c3CC12c1ccc(Cl)cc1` (stereo not drawn) [Compound 1-073] has an EC50 of 250 to 1000 nM.
`O=C(c1ccc(F)nc1)N1CCN2C(=O)c3ccccc3CC12c1ccc(Cl)cc1` (stereo not drawn) [Compound 1-007] showed an EC50 of 1000 to 5000 nM.
For `O=C(Cc1ccccn1)N1CCN2C(=O)c3ccccc3CC12c1ccc(Cl)cc1` (stereo not drawn) [Compound 1-066], the EC50 was 1000 to 5000 nM.
Work on `O=C(c1cccnc1)N1CCN2C(=O)c3cccnc3CC12c1ccc(Cl)cc1` (stereo not drawn) [Compound 1-014] yielded an EC50 of 1000 to 5000 nM.
Compound `O=C(c1cccnc1)N1CCN2C(=O)c3ccccc3CC12c1ccccc1` (stereo not drawn) [Compound 1-003] has an EC50 of 250 to 1000 nM.
`O=C(NCCc1ccccc1)N1CCN2C(=O)c3cccnc3CC12c1ccc(Cl)cc1` (stereo not drawn) [Compound 1-015] showed an EC50 of 250 to 1000 nM.
`O=C(c1ccc(F)cc1)N1CCN2C(=O)c3ccccc3CC12c1ccccc1` (stereo not drawn) [Compound 1-001] gave an EC50 of 250 to 1000 nM.
`O=C(c1ccoc1)N1CCN2C(=O)c3cccc(F)c3CC12c1ccc(Cl)cc1` (stereo not drawn) [Compound 1-071] gave an EC50 of less than 250 nM.
In the case of `O=C(c1cccs1)N1CCN2C(=O)c3cccnc3CC12c1ccc(Cl)cc1` (stereo not drawn) [Compound 1-101], the EC50 is reported as less than 250 nM.
`O=C(c1ccoc1)N1CCN2C(=O)c3ccccc3CC12c1ccc(Cl)cc1` (stereo not drawn) [Compound 1-006] gave an EC50 of less than 250 nM.
`O=C(c1cccnc1)N1CCN2C(=O)c3ccc(F)cc3CC12c1ccc(Cl)cc1` (stereo not drawn) [Compound 1-083] was tested, and the EC50 was 250 to 1000 nM.
In the case of `Cn1cc(C(=O)N2CCN3C(=O)c4ccccc4CC32c2ccc(Cl)cc2)c(C(F)(F)F)n1` (stereo not drawn) [Compound 1-029], the EC50 is reported as 250 to 1000 nM.
In the case of `CCC(=O)N1CCN2C(=O)c3ccccc3CC12c1ccc(Cl)cc1` (stereo not drawn) [Compound 1-077], the EC50 is reported as 1000 to 5000 nM.
`O=C(c1ccc(F)cc1)N1CCN2C(=O)c3ncccc3CC12c1ccc(Cl)cc1` (stereo not drawn) [Compound 1-109] showed an EC50 of 1000 to 5000 nM.
`O=C1c2ccccc2CC2(c3ccc(Cl)cc3)N1CCN2C(=O)c1sccc1Cl` (stereo not drawn) [Compound 1-019] was tested, and the EC50 was 250 to 1000 nM.
Work on `O=C(c1cccnc1)N1CCN2C(=O)c3ccccc3CC12c1ccc(Cl)cc1` (stereo not drawn) [Compound 1-008, 10a-(4-Chlorophenyl)-1-(pyridine-3-carbonyl)-2,3,10,10a-tetrahydro-1H-imidazo[1,2-b]isoquinolin-5-one] yielded an EC50 of 1000 to 5000 nM.
With `COc1ccc(CC(=O)N2CCN3C(=O)c4ccccc4CC23c2ccc(Cl)cc2)cc1` (stereo not drawn) [Compound 1-069] the EC50 was 250 to 1000 nM.
`Cn1cc(C(=O)N2CCN3C(=O)c4cccc(F)c4CC23c2ccc(Cl)cc2)c(C(F)(F)F)n1` (stereo not drawn) [Compound 1-087] was tested, and the EC50 was less than 250 nM.
`O=C(c1ccoc1)N1CCN2C(=O)c3ccncc3CC12c1ccc(Cl)cc1` (stereo not drawn) [Compound 1-010] was tested, and the EC50 was 250 to 1000 nM.
`O=C(c1ccc(F)cc1)N1CCN2C(=O)c3ccccc3CC12c1ccc(Cl)cc1` (stereo not drawn) [Compound 1-005] was tested, and the EC50 was greater than 5000 nM.
Work on `O=C(CNS(=O)(=O)c1ccc(F)cc1)N1CCN2C(=O)c3ccccc3CC12c1ccc(Cl)cc1` (stereo not drawn) [Compound 1-079, N-{2-[10a-(4-Chlorophenyl)-5-oxo-2,3,10,10a-tetrahydro-5H-imidazo[1,2-b]isoquinolin-1-yl]-2-oxoethyl}-4-fluorobenzenesulfonamide] yielded an EC50 of 250 to 1000 nM.
Work on `O=C(c1ccoc1)N1CCN2C(=O)c3cccnc3CC12c1ccc(Cl)cc1` (stereo not drawn) [Compound 1-043] yielded an EC50 of less than 250 nM.
`O=C(c1csc(-c2cccnc2)n1)N1CCN2C(=O)c3ccccc3CC12c1ccccc1` (stereo not drawn) [Compound 1-002] gave an EC50 of 250 to 1000 nM.
For `O=C(c1ccno1)N1CCN2C(=O)c3ccccc3CC12c1ccc(Cl)cc1` (stereo not drawn) [Compound 1-025], the EC50 was 1000 to 5000 nM.
